The structures appear in SMILES notation.

T1 sequence (P21453 whole entry): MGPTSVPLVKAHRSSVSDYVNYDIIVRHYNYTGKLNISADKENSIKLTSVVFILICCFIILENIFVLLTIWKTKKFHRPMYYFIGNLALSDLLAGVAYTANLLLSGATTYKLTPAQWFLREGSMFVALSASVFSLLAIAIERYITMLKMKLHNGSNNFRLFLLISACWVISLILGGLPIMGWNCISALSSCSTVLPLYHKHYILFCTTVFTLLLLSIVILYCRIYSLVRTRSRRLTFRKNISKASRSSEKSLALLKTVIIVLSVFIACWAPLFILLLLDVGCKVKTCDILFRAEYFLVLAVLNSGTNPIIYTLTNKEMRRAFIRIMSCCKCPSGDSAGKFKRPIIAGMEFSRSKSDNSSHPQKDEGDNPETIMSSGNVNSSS

One test addresses T1, Edg-1/S1P1 receptor (Homo sapiens, UniProt P21453).
T1 construct: expressed in transfected cells; host or cells: human osteogenic sarcoma U2OS cells: Edg-1 Transfluor U2OS WT Clone #37 (assay I), Edg-1 Transfluor U2OS Clone #3 (assay II)
The test is described as follows: In vitro cell based receptor activation assay - Transfluor assay (assay I or II; beta-arrestin GFP relocalization after S1P stimulation). The note with it: at 3.50 μM (titrated from top concentration 10 μM). The text has this: The following assays can be used to measure the effects of the compounds of the present invention as S1P1/Edg1 inhibitors.
I. In Vitro Cell Based Receptor Activation Assay-Transfluor Assay
This cell-based assay was designed to assess the ability of small molecule antagonists to inhibit activation of the GPCR S1P1 in the presence of its cognate ligand S1P. The assay used technology initially developed by Norak Biosciences (Xsira Pharmaceutical) and presently owned by Molecular Devices. A human osteogenic sarcoma (U2OS) cell line overexpressing the Edg-1/S1P1) receptor as well as a beta-arrestin/green fluorescent protein (GFP) construct hereafter termed Edg-1 Transfluor U2OS WT Clone #37 was employed.
Using a high content screening approach (Cellomics Arrayscan), receptor activity was measured by assessment of the relocalization of beta-arrestin GFP in response to stimulation of Edg-1 by SIP. Specifically, Edg-1 Transfluor U2OS WT Clone #37 cells were plated at a density of 6250 cells in 40 μL medium per well in 384 well plastic bottomed microtiter plates (BD Falcon) and incubated overnight at 37° C./5% CO2. Prior to screening, compounds were dissolved in 100% dimethyl sulfoxide (DMSO) to a final stock concentration of 10 mM. Compounds were then serially diluted at 30× final concentration in Edg-1 Transfluor cell growth medium containing […] using the Tecan Genesis instrument. These 30× plates were then diluted to 6× final concentration with Edg-1 Transfluor growth medium just prior to dosing. Cells were then dosed with 10 μL per well of 6× compound dilutions or 6% DMSO and pre-incubated for 15 minutes at room temperature. Cell plates were dosed with 10 μL per well 6× S1P Edg-1 Transfluor growth medium, then incubated for 45 minutes at 37° C./5% CO2. Final concentration in the well of DMSO was 1%, compound was IX (3-fold, 9 point IC50 dilutions starting at 100 μM final concentration), and either 375 nM or […] SIP ligand. Cell plates were then fixed by adding 50 μL per well of 5% formaldehyde in 1× Dulbecco's phosphate buffered saline (DPBS) directly and incubating for 30 minutes at room temperature in darkness. Fixative was removed and replaced with 50 μL per well of 1×DPBS, after which cells were stained with 10 μg/mL final concentration of Hoechst 33342 (Molecular Probes) for 15 minutes at room temperature in darkness. Stain was then removed from the plates and replaced with 50 μL per well of 1×DPBS using the BioTek ExL405 plate washer. Plates were then sealed and analysed on the Cellomics Arrayscan using the GPCR signalling algorithm. EC50 values were then calculated using IDBS ActivityBase software.
II. In Vitro Cell Based Receptor Activation Assay-Transfluor Assay
This cell-based assay was designed to assess the ability of small molecule antagonists to inhibit activation of the GPCR S1P1 in the presence of its cognate ligand S1P. The assay used technology initially developed by Norak Biosciences (Xsira Pharmaceutical) and presently owned by Molecular Devices (MDS Analytical Technologies). A human osteogenic sarcoma (U2OS) cell line overexpressing the Edg-1/S1P1) receptor as well as a beta-arrestin/green fluorescent protein (GFP) construct hereafter termed Edg-1 Transfluor U2OS Clone #3 was employed.
Using a high content screening approach (Molecular Devices Image Express), receptor activity was measured by assessment of the relocalization of beta-aiTestin GFP in response to stimulation of Edg-1 by S1P. Specifically, Edg-1 Transfluor U2OS Clone #3 cells were plated at a density of 6250 cells in 44 μL medium per well in 384 well plastic bottomed microtiter plates (BD Falcon) and incubated overnight at 37° C./5% CO2. Prior to screening, compounds were dissolved in 100% dimethyl sulfoxide (DMSO) to a final stock concentration of 10 mM. Compounds were then serially diluted at 10× final concentration in Edg-1 Transfluor cell growth medium containing 6% DMSO using the BioMek instrument. […]
Turning to `CCn1c([C@@H](C)NS(=O)(=O)c2ccc(Cl)cc2)nc2cc(C)c(C)cc21` [Example 24, 4-Chloro-N-[(1R)-1-(1-ethyl-5,6-dimethyl-1H-benzimidazol-2-yl)ethyl]benzenesulfonamide], the inhibition at 3.5 µM was 73%. On the same count and under the same terms, the same measure for `CCn1c([C@@H](C)NS(=O)(=O)c2ccc(F)cc2)nc2ccc(C(F)(F)F)cc21` [Example 25, N-{(1R)-1-[1-Ethyl-6-(trifluoromethyl)-1H-benzimidazol-2-yl]ethyl}-4-fluorobenzenesulfonamide]: 90%.

For the compound `CCn1c([C@@H](C)NS(=O)(=O)c2ccc(C#N)cc2)nc2ccc(C(F)(F)F)cc21` [Example 26, 4-Cyano-N-{(1R)-1-[1-ethyl-6-(trifluoromethyl)-1H-benzimidazol-2-yl]ethyl}benzenesulfonamide], testing at 3.5 µM gave an inhibition of 87.4%.

`CCn1c([C@@H](C)NS(=O)(=O)c2ccc(F)c(C#N)c2)nc2ccc(C(F)(F)F)cc21` [Example 27, 3-Cyano-N-{(1R)-1-[1-ethyl-6-(trifluoromethyl)-1H-benzimidazol-2-yl]ethyl}-4-fluorobenzenesulfonamide] showed an inhibition at 3.5 µM of 85.7%. Same read-out and setting: the same measure for `CCn1c([C@@H](C)NS(=O)(=O)c2ccc(F)c(C)c2)nc2ccc(C(F)(F)F)cc21` [Example 30, N-{(1R)-1-[1-Ethyl-6-(trifluoromethyl)-1H-benzimidazol-2-yl]ethyl}-4-fluoro-3-methylbenzenesulfonamide]: 94.6%; for `CCn1c([C@@H](C)NS(=O)(=O)c2cc(C)oc2C)nc2ccc(C(F)(F)F)cc21` [Example 33, N-{(1R)-1-[1-Ethyl-6-(trifluoromethyl)-1H-benzimidazol-2-yl]ethyl}-2,5-dimethylfuran-3-sulfonamide]: 92%; for `CCn1c([C@@H](C)NS(=O)(=O)c2ccc(F)c(F)c2F)nc2ccc(C(F)(F)F)cc21` [Example 34]: 95.3%. On the same count and under the same terms, the value for `CCn1c([C@@H](C)NS(=O)(=O)c2cccs2)nc2ccc(C(F)(F)F)cc21` [Example 39, N-{(1R)-1-[1-Ethyl-6-(trifluoromethyl)-1H-benzimidazol-2-yl]ethyl}thiophene-2-sulfonamide] was 92.5%; that for `CCn1c([C@@H](C)NS(=O)(=O)c2ccc(C(=O)OC)n2C)nc2ccc(C(F)(F)F)cc21` [Example 40, (R)-methyl 5-(N-(1-(1-ethyl-6-(trifluoromethyl)-1H-benzo[d]imidazol-2-yl)ethyl)sulfamoyl)-1-methyl-1H-pyrrole-2-carboxylate] was 97.5%; that for `CCn1c([C@@H](C)NS(=O)(=O)c2ccc3c(c2)OCCN3C)nc2ccc(C(F)(F)F)cc21` [Example 43, N-{(1R)-1-[1-Ethyl-6-(trifluoromethyl)-1H-benzimidazol-2-yl]ethyl}-4-methyl-3,4-dihydro-2H-1,4-benzoxamide-7-sulfonamide] was 93.3%. Still for that read-out and setting: the value for `CCn1c([C@@H](C)NS(=O)(=O)c2ccc3c(c2)OCCO3)nc2ccc(C(F)(F)F)cc21` [Example 44, N-{(1R)-1-[1-Ethyl-6-(trifluoromethyl)-1H-benzimidazol-2-yl]ethyl}-2,3-dihydro-1,4-benzodioxine-6-sulfonamide] was 93.9%.

In the case of `CCn1c([C@@H](C)NS(=O)(=O)c2ccc3c(c2)OCO3)nc2ccc(C(F)(F)F)cc21` [Example 45, N-{(1R)-1-[1-Ethyl-6-(trifluoromethyl)-1H-benzimidazol-2-yl]ethyl}-1,3-benzodioxole-5-sulfonamide], at 3.5 µM the inhibition was 96%.

Staying with this test, now noted: at 3.70 μM (titrated from top concentration 100 μM).
`CC(NS(=O)(=O)c1ccc(Cl)cc1)c1nc2ccccc2n1C1CC1` (centres unmarked) [Example 21, 4-Chloro-N-[1-(1-cyclopropyl-1H-benzimidazol-2-yl)ethyl]benzenesulfonamide] came in with an inhibition at 3.7 µM of 39%. Still for that read-out and setting: the value for `CCn1c([C@@H](C)NS(=O)(=O)c2ccc(Cl)cc2)nc2cc(Cl)c(Cl)cc21` [Example 22, (R)-4-Chloro-N-[1-(5,6-dichloro-1-ethyl-1H-benzoimidazol-2-yl)ethyl]-benzenesulfonamide] was 63.5%. On the same count and under the same terms, the value for `CC(NS(=O)(=O)c1ccc(Cl)cc1)c1nc2ccccc2n1CC(F)(F)F` (centres unmarked) [Example 23, 4-Chloro-N-{1-[1-(2,2,2-trifluoro-ethyl)-1H-benzimidazol-2-yl]-ethyl}-benzenesulfonamide] was 88.1%.

`CCn1c([C@@H](C)NS(=O)(=O)C2CCCC2)nc2ccc(C(F)(F)F)cc21` [Example 28, N-{(1R)-1-[1-Ethyl-6-(trifluoromethyl)-1H-benzimidazol-2-yl]ethyl} cyclopentanesulfonamide] displayed an inhibition at 3.7 µM of 66.1%.

In turn, `CCn1c([C@@H](C)NS(=O)(=O)c2ccc(NC(C)=O)c(C)c2)nc2ccc(C(F)(F)F)cc21` [Example 29, N-{4-[({(1R)-1-[1-Ethyl-6-(trifluoromethyl)-1H-benzimidazol-2-yl]ethyl}amino)sulfonyl]-2-methylphenyl}acetamide] yielded an inhibition at 3.7 µM of 21.8%. The same measure, in the same setting: the same measure for `CCn1ncc(S(=O)(=O)N[C@H](C)c2nc3ccc(C(F)(F)F)cc3n2CC)c1C` [Example 31, 1-Ethyl-N-{(1R)-1-[1-ethyl-6-(trifluoromethyl)-1H-benzimidazol-2-yl]ethyl}-5-mthyl-1H-pyrazole-4-sulfonamide]: 78.6%; for `CCn1c([C@@H](C)NS(=O)(=O)c2cnc(C)n2C)nc2ccc(C(F)(F)F)cc21` [Example 32, N-{(1R)-1-[1-Ethyl-6-(trifluoromethyl)-1H-benzimidazol-2-yl]ethyl}-1,2-dimethyl-1H-imidazole-5-sulfonamide]: 66.5%. Compound `CCn1c([C@@H](C)NS(=O)(=O)c2cnc(NC(C)=O)s2)nc2ccc(C(F)(F)F)cc21` [Example 36, N-{5-[({(1R)-1-[1-Ethyl-6-(trifluoromethyl)-1H-benzimidazol-2-yl]ethyl}amino)sulfonyl]-1,3-thiazol-2-yl}acetamide] showed an inhibition at 3.7 µM of 49%. Same read-out and setting: the value for `CCn1c([C@@H](C)NS(=O)(=O)c2c(C)noc2C)nc2ccc(C(F)(F)F)cc21` [Example 37, N-{(1R)-1-[1-Ethyl-6-(trifluoromethyl)-1H-benzimidazol-2-yl]ethyl}-3,5-dimethylisoxazole-4-sulfonamide] was 58.3%; that for `CCn1c([C@@H](C)NS(=O)(=O)C2CC2)nc2ccc(C(F)(F)F)cc21` [Example 38, N-{(1R)-1-[1-Ethyl-6-(trifluoromethyl)-1H-benz-imidazol-2-yl]ethyl}cyclo-propanesulfonamide] was 35.1%; that for `CCn1c([C@@H](C)NS(=O)(=O)c2cn(C)nc2C)nc2ccc(C(F)(F)F)cc21` [Example 41, N-{(1R)-1-[1-Ethyl-6-(trifluoromethyl)-1H-benzimidazol-2-yl]ethyl}-1,3-dimethyl-1H-pyrazole-4-sulfonamide] was 61%. Compound `CCn1c([C@@H](C)NS(=O)(=O)c2cn(C)c(C)n2)nc2ccc(C(F)(F)F)cc21` [Example 42, N-{(1R)-1-[1-Ethyl-6-(trifluoromethyl)-1H-benzimidazol-2-yl]ethyl}-1,2-dimethyl-1H-imidazole-4-sulfonamide] returned an inhibition at 3.7 µM of 41.3%.

`CCn1c([C@@H](C)NS(=O)(=O)c2ccc3nsnc3c2)nc2ccc(C(F)(F)F)cc21` [Example 46, N-{(1R)-1-[1-Ethyl-6-(trifluoromethyl)-1H-benzimidazol-2-yl]ethyl}-2,1,3-benzothiadiazole-5-sulfonamide] had an inhibition at 3.7 µM of 89.8%.

Still in this test, the particulars now being: one or the other of the two Transfluor assays; Edg-1 Transfluor U2OS cells, S1P ligand.
Take `CC(NS(=O)(=O)c1ccc(Cl)cc1)c1nc2ccccc2n1C1CC1` (centres unmarked) [Example 21, 4-Chloro-N-[1-(1-cyclopropyl-1H-benzimidazol-2-yl)ethyl]benzenesulfonamide]: the EC50 turned out to be 5.15 µM.

For the origin of these results see patent publication US20100029643A1 (ASTRAZENECA AB, priority 2006, published 2010).
